In ChEMBL document CHEMBL1149662, “Design and synthesis of a library of tertiary amides: evaluation as mimetics of the melanocortins' active core” (Bioorg Med Chem, 2007):

Legend:
[1] = target: Melanocyte-stimulating hormone receptor (Mus musculus, UniProt Q01727); assay: Displacement of [125I]NDP-MSH from MC1 receptor in mouse B16 cells; assay type: cell-based
Melanocortin receptor 4 = Melanocortin receptor 4 (Homo sapiens, UniProt P32245); assay: Displacement of [125I]NDP-MSH from human recombinant MC4 receptor expressed in Sf9 cells
Melanocortin receptor 4, sequence (P32245 whole entry): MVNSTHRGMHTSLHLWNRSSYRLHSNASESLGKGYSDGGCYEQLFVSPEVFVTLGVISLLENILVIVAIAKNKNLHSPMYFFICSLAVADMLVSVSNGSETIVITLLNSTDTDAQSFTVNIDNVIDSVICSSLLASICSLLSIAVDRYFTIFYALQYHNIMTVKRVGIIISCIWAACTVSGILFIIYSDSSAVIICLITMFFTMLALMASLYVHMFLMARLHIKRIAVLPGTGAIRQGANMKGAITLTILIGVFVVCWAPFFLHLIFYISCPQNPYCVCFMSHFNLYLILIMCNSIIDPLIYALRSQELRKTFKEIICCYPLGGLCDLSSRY

Melanocortin receptor 3 = Melanocortin receptor 3 (Homo sapiens, UniProt P41968); assay: Displacement of [125I]NDP-MSH from human recombinant MC3 receptor expressed in Sf9 cells
Melanocortin receptor 3, sequence (P41968 whole entry): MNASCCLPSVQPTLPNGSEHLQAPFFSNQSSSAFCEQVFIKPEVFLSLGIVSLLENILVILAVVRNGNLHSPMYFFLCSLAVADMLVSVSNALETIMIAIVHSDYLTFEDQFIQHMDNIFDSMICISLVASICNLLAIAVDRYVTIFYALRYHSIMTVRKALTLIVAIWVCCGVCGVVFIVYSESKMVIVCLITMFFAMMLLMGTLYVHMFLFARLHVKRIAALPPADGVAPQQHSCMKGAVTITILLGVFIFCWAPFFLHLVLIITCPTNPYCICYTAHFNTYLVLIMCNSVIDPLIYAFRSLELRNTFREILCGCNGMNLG

Melanocortin receptor 5 = Melanocortin receptor 5 (Homo sapiens, UniProt P33032); assay: Displacement of [125I]NDP-MSH from human recombinant MC5 receptor expressed in Sf9 cells
Melanocortin receptor 5, sequence (P33032 whole entry): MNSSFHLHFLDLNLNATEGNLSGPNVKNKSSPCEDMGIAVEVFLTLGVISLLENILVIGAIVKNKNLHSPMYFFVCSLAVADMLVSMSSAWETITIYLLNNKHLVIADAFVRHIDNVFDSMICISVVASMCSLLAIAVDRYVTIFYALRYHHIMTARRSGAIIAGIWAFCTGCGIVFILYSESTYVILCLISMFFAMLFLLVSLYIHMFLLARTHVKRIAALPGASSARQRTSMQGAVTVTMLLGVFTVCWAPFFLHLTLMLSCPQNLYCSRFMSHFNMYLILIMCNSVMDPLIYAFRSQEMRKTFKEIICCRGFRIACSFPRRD

Melanocyte-stimulating hormone receptor, sequence (Q01727 whole entry): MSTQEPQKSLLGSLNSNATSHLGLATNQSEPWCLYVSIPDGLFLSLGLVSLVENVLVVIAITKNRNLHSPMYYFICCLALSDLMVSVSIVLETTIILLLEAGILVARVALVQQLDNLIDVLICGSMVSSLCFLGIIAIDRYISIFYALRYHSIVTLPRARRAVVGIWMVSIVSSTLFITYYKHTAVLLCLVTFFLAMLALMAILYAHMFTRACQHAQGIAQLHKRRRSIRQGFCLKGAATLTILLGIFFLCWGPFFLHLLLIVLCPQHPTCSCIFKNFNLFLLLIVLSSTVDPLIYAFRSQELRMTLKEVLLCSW

SMILES	Ki [1]	Ki (Melanocortin receptor 4)	Ki (Melanocortin receptor 3)	Ki (Melanocortin receptor 5)
N[C@H]1CC[C@H](N(C/C(Cl)=C/c2ccccc2)C(=O)CCCc2c[nH]c3ccccc23)CC1	2800 nM	3.2 µM	10 µM	10 µM
NC1CCC(CC2CCC(N(Cc3c(F)cccc3Cl)C(=O)CCCc3c(Cc4ccc(O)cc4)[nH]c4ccccc34)CC2)CC1 (stereo not given)	1100 nM	1.9 µM	23 µM	15 µM
COC(=O)c1ccc(CN(C(=O)CCCc2c[nH]c3ccccc23)C2CCC(CC3CCC(N)CC3)CC2)cc1 (stereo not given)	2100 nM	2.2 µM	14 µM	9.6 µM
CSc1ccc(CN(C(=O)CCCc2c(Cc3ccc(O)cc3)[nH]c3ccccc23)C2CCC(CC3CCC(N)CC3)CC2)cc1 (stereo not given)	17000 nM	4.5 µM	201 µM	8.9 µM
NCCCCN(Cc1ccc2ccccc2c1)C(=O)c1c[nH]c2ccccc12	1700 nM	6.4 µM	19 µM	18 µM
NC1CCC(CC2CCC(N(C/C(Cl)=C/c3ccccc3)C(=O)c3cc4cc(OCc5ccccc5)ccc4[nH]3)CC2)CC1 (stereo not given)	4200 nM	4.8 µM	12 µM	12 µM
NC1CCC(CC2CCC(N(C/C(Cl)=C/c3ccccc3)C(=O)COc3ccc4ccccc4c3)CC2)CC1 (stereo in doubt; 10b-36-14)	1500 nM	3.7 µM	23 µM	5.5 µM
COc1cc(O)ccc1/C=C/CN(C(=O)CCCc1c[nH]c2ccccc12)C1CCC(CC2CCC(N)CC2)CC1 (stereo in doubt; form 1)	2900 nM	6.4 µM	37 µM	7.6 µM
COc1cc(O)ccc1/C=C/CN(C(=O)CCCc1c[nH]c2ccccc12)C1CCC(CC2CCC(N)CC2)CC1 (stereo in doubt; form 2)	3300 nM	8 µM	51 µM	11 µM
Cc1cccc(CN(C(=O)CCCc2c(Cc3ccc(O)cc3)[nH]c3ccccc23)C2CCC(CC3CCC(N)CC3)CC2)c1 (stereo not given)	2900 nM	3.4 µM	78 µM	16 µM
NCCCN(CCc1ccccc1)C(=O)CCCc1c[nH]c2ccccc12	21000 nM	164 µM	30 µM	33 µM
NC1CCC(CC2CCC(N(C/C(Cl)=C/c3ccccc3)C(=O)CCCc3c[nH]c4ccccc34)CC2)CC1 (stereo in doubt; form 3)	2300 nM	5.2 µM	33 µM	5.4 µM
CCOc1cc(CN(C(=O)CCCc2c(Cc3ccc(O)cc3)[nH]c3ccccc23)C2CCC(CC3CCC(N)CC3)CC2)ccc1OC (stereo not given)	2100 nM	2.1 µM	26 µM	12 µM
NCCN(C(=O)CCCc1c[nH]c2ccccc12)C1CCC2(CCCCC2)CC1	3200 nM	10 µM	2.7 µM	12 µM
N=C(N)NCCCCN(Cc1ccc2ccccc2c1)C(=O)Cc1c[nH]c2ccccc12	17000 nM	182 µM	137 µM	16 µM
NCCCCCCN(C/C(Cl)=C/c1ccccc1)C(=O)CCCc1c[nH]c2ccccc12	2400 nM	3.8 µM	26 µM	21 µM
NCCCCCN(Cc1ccccc1)C(=O)[C@H](N)Cc1ccc(-c2ccccc2)cc1	3900 nM	14 µM	18 µM	20 µM
C=C(Br)CN(C(=O)CCCc1c[nH]c2ccccc12)C1CCC(CC2CCC(N)CC2)CC1 (stereo in doubt; form 1)	1200 nM	3.2 µM	19 µM	4.9 µM
Cc1ccccc1CN(C(=O)CCCc1c[nH]c2ccccc12)C1CCC(CC2CCC(N)CC2)CC1 (stereo not given)	1200 nM	2.3 µM	121 µM	15 µM
NC(N)=NCCCCN(Cc1ccc2ccccc2c1)C(=O)CCc1c[nH]c2ccccc12	12000 nM	116 µM	50 µM	21 µM
N[C@@H]1CCCC[C@H]1N(C/C=C/c1ccccc1)C(=O)CCCc1c[nH]c2ccccc12	12000 nM	116 µM	62 µM	555 µM
NCc1cccc(CN(Cc2ccc3ccccc3c2)C(=O)CCCc2c[nH]c3ccccc23)c1	1500 nM	7.7 µM	17 µM	6.4 µM
NC1CCC(CC2CCC(N(Cc3c(Cl)cccc3Cl)C(=O)CCCc3c[nH]c4ccccc34)CC2)CC1 (stereo not given)	2500 nM	2.6 µM	25 µM	7.2 µM
N=C(N)NCCN(Cc1ccc2ccccc2c1)C(=O)Cc1c[nH]c2ccccc12	19000 nM	179 µM	57 µM	15 µM
Cc1ccccc1CN(C(=O)CCCc1c(Cc2ccc(O)cc2)[nH]c2ccccc12)C1CCC(CC2CCC(N)CC2)CC1 (stereo not given)	4700 nM	4.1 µM	349 µM	4.4 µM
